# In patent publication US4112097A, “Antihypertensive agents” (Abbott Laboratories, priority 1977, dated 1978):
# Tested on: spontaneously hypertensive (SH) rats
# Test: Antihypertensive effect (blood pressure and heart rate) in spontaneously hypertensive rats
# Format: in vivo, rat
# Settings: for Percent Change (antihypertensive effect): individual values of 2 rats; for Percent Change BP (blood pressure) / Percent Change HR (heart rate): N=4, mean
# Procedure: The screening is conducted as follows:
# Male spontaneously hypertensive (SH) rats are trained to be restrained in a wire mesh cylinder in a warming box, at least two training cycles being conducted before testing. The rats are warmed for about 1/2 hour period to blood pressure measurement, the warming box being maintained at a constant temperature of 36° C.
# An occluding cuff attached to the programed sphymomanometer is placed near the base of the tail of each rat and the pressure in the cuff is increased automatically from 0 to 250 milimeters of mercury (mm Hg) at a rate of 10 mm Hg per second. The total time for each cycle of inflation and deflation of the cuff is 50 seconds and the interval between cycles is one minute.
# A photocell is placed distal to the cuff to record the pulses due to forward motion of blood flow with each heart beat. As the pressure in the cuff increases, the pulse disappears completely at a point where cuff pressure equals or exceeds the arterial blood pressure and it reappears during deflation at approximately the same pressure. Five interference free signals for deflation are recorded for each rat. Rats with a blood pressure of 180 mm Hg or more during the control period are used in the study. Blood pressure and heart rate readings are recorded on a model VII Grass polygraph at intervals of 1, 3, 5 and 24 hours after administration of the drug.
# [1] = intraperitoneal 30 mg/kg, 1 hour
# [2] = intraperitoneal 30 mg/kg, 3 hours
# [3] = intraperitoneal 30 mg/kg, 5 hours
# [4] = intraperitoneal 30 mg/kg, 24 hours
# [5] = intraperitoneal 0.3 mg/kg, 1 hour
# [6] = intraperitoneal 0.3 mg/kg, 3 hours
# [7] = intraperitoneal 0.3 mg/kg, 5 hours
# [8] = intraperitoneal 0.3 mg/kg, 24 hours
# [9] = intraperitoneal 1 mg/kg, 1 hour
# [10] = intraperitoneal 1 mg/kg, 3 hours
# [11] = intraperitoneal 1 mg/kg, 5 hours
# [12] = intraperitoneal 1 mg/kg, 24 hours
# [13] = intraperitoneal 3 mg/kg, 1 hour
# [14] = intraperitoneal 3 mg/kg, 3 hours
# [15] = intraperitoneal 3 mg/kg, 5 hours
# [16] = intraperitoneal 3 mg/kg, 24 hours
# [17] = intraperitoneal 10 mg/kg, 1 hour
# [18] = intraperitoneal 10 mg/kg, 3 hours
# [19] = intraperitoneal 10 mg/kg, 5 hours
# [20] = intraperitoneal 10 mg/kg, 24 hours
smiles,measurement,setting,value
"COc1cc2nc(N3CCN(C(=O)C4CCCCO4)CC3)nc(N)c2cc1OC (stereo not shown) [Formula III, 2-[4(tetrahydropyran-2-carbonyl)piperazinyl]-4-amino-6,7-dimethoxyquinazoline]",Percent Change (antihypertensive effect),[1],-58%
same,Percent Change (antihypertensive effect),[2],-71%
same,Percent Change (antihypertensive effect),[3],-47%
same,Percent Change (antihypertensive effect),[4],-28%
same,Percent Change (antihypertensive effect),"oral 1 mg/kg, 1 hour, 1 mg/kg",-34%
same,Percent Change (antihypertensive effect),"oral 1 mg/kg, 3 hours, 1 mg/kg",-25%
same,Percent Change (antihypertensive effect),"oral 1 mg/kg, 5 hours, 1 mg/kg",-21%
same,Percent Change (antihypertensive effect),"oral 1 mg/kg, 24 hours, 1 mg/kg",-7%
"COc1cc2nc(N3CCN(C(=O)C4CCCO4)CC3)nc(N)c2cc1OC (stereo not shown) [Formula II, 2[4(tetrahydro-2-furoyl)-piperazino]-4-amino-6,7-dimethoxyquinazoline]",antihypertensive effect in words,SH rats,potent antihypertensive agents which lower the blood pressure of spontaneously hypertensive rats
same,heart rate in words,SH rats,without causing any significant changes in heart rate
same,Percent Change BP (blood pressure),[5],-22.3%
same,Percent Change HR (heart rate),[5],20.0%
same,Percent Change BP (blood pressure),[6],-26.5%
same,Percent Change HR (heart rate),[6],10.3%
same,Percent Change BP (blood pressure),[7],-20.5%
same,Percent Change HR (heart rate),[7],14.3%
same,Percent Change BP (blood pressure),[8],2.5%
same,Percent Change HR (heart rate),[8],10.0%
same,Percent Change BP (blood pressure),[9],-26.5%
same,Percent Change HR (heart rate),[9],22.8%
same,Percent Change BP (blood pressure),[10],-27.5%
same,Percent Change HR (heart rate),[10],2.8%
same,Percent Change BP (blood pressure),[11],-17.0%
same,Percent Change HR (heart rate),[11],11.5%
same,Percent Change BP (blood pressure),[12],3.8%
same,Percent Change HR (heart rate),[12],-9.5%
same,Percent Change BP (blood pressure),[13],-45.3%
same,Percent Change HR (heart rate),[13],7.8%
same,Percent Change BP (blood pressure),[14],-39.0%
same,Percent Change HR (heart rate),[14],-1.5%
same,Percent Change BP (blood pressure),[15],-40.0%
same,Percent Change HR (heart rate),[15],3.0%
same,Percent Change BP (blood pressure),[16],-2.3%
same,Percent Change HR (heart rate),[16],-0.5%
same,Percent Change BP (blood pressure),[17],-49.8%
same,Percent Change HR (heart rate),[17],9.0%
same,Percent Change BP (blood pressure),[18],-41.5%
same,Percent Change HR (heart rate),[18],24.5%
same,Percent Change BP (blood pressure),[19],-41.8%
same,Percent Change HR (heart rate),[19],34.5%
same,Percent Change BP (blood pressure),[20],-7.5%
same,Percent Change HR (heart rate),[20],14.0%
same,Percent Change BP (blood pressure),[1],-59.5%
same,Percent Change HR (heart rate),[1],-9.0%
same,Percent Change BP (blood pressure),[2],-42.3%
same,Percent Change HR (heart rate),[2],1.8%
same,Percent Change BP (blood pressure),[3],-44.5%
same,Percent Change HR (heart rate),[3],5.3%
same,Percent Change BP (blood pressure),[4],-22.3%
same,Percent Change HR (heart rate),[4],5.8%
same,Percent Change BP (blood pressure),"oral 0.03 mg/kg, 1 hour",-5.3%
same,Percent Change HR (heart rate),"oral 0.03 mg/kg, 1 hour",-4.3%
same,Percent Change BP (blood pressure),"oral 0.03 mg/kg, 3 hours",-1.8%
same,Percent Change HR (heart rate),"oral 0.03 mg/kg, 3 hours",-8.5%
same,Percent Change BP (blood pressure),"oral 0.03 mg/kg, 5 hours",-9.3%
same,Percent Change HR (heart rate),"oral 0.03 mg/kg, 5 hours",-14.5%
same,Percent Change BP (blood pressure),"oral 0.03 mg/kg, 24 hours",-3.3%
same,Percent Change HR (heart rate),"oral 0.03 mg/kg, 24 hours",-8.8%
same,Percent Change BP (blood pressure),"oral 0.1 mg/kg, 1 hour",3.8%
same,Percent Change HR (heart rate),"oral 0.1 mg/kg, 1 hour",3.0%
same,Percent Change BP (blood pressure),"oral 0.1 mg/kg, 3 hours",1.8%
same,Percent Change HR (heart rate),"oral 0.1 mg/kg, 3 hours",4.8%
same,Percent Change BP (blood pressure),"oral 0.1 mg/kg, 5 hours",-7.3%
same,Percent Change HR (heart rate),"oral 0.1 mg/kg, 5 hours",-6.8%
same,Percent Change BP (blood pressure),"oral 0.1 mg/kg, 24 hours",-1.5%
same,Percent Change HR (heart rate),"oral 0.1 mg/kg, 24 hours",-0.3%
same,Percent Change BP (blood pressure),"oral 0.3 mg/kg, 1 hour",-15.8%
same,Percent Change HR (heart rate),"oral 0.3 mg/kg, 1 hour",-1.0%
same,Percent Change BP (blood pressure),"oral 0.3 mg/kg, 3 hours",-22.8%
same,Percent Change HR (heart rate),"oral 0.3 mg/kg, 3 hours",-2.8%
same,Percent Change BP (blood pressure),"oral 0.3 mg/kg, 5 hours",-21.3%
same,Percent Change HR (heart rate),"oral 0.3 mg/kg, 5 hours",-2.8%
same,Percent Change BP (blood pressure),"oral 0.3 mg/kg, 24 hours",2.0%
same,Percent Change HR (heart rate),"oral 0.3 mg/kg, 24 hours",10.5%
same,Percent Change BP (blood pressure),"oral 1 mg/kg, 1 hour",-15.8%
same,Percent Change HR (heart rate),"oral 1 mg/kg, 1 hour",-9.0%
same,Percent Change BP (blood pressure),"oral 1 mg/kg, 3 hours",-17.3%
same,Percent Change HR (heart rate),"oral 1 mg/kg, 3 hours",-9.3%
same,Percent Change BP (blood pressure),"oral 1 mg/kg, 5 hours",-22.5%
same,Percent Change HR (heart rate),"oral 1 mg/kg, 5 hours",-8.5%
same,Percent Change BP (blood pressure),"oral 1 mg/kg, 24 hours",3.5%
same,Percent Change HR (heart rate),"oral 1 mg/kg, 24 hours",-4.5%
same,Percent Change BP (blood pressure),"oral 3 mg/kg, 1 hour",-29.0%
same,Percent Change HR (heart rate),"oral 3 mg/kg, 1 hour",-9.3%
same,Percent Change BP (blood pressure),"oral 3 mg/kg, 3 hours",-33.3%
same,Percent Change HR (heart rate),"oral 3 mg/kg, 3 hours",-11.0%
same,Percent Change BP (blood pressure),"oral 3 mg/kg, 5 hours",-31.5%
same,Percent Change HR (heart rate),"oral 3 mg/kg, 5 hours",-11.0%
same,Percent Change BP (blood pressure),"oral 3 mg/kg, 24 hours",-12.3%
same,Percent Change HR (heart rate),"oral 3 mg/kg, 24 hours",-5.3%
same,Percent Change BP (blood pressure),"oral 10 mg/kg, 1 hour",-37.0%
same,Percent Change HR (heart rate),"oral 10 mg/kg, 1 hour",12.3%
same,Percent Change BP (blood pressure),"oral 10 mg/kg, 3 hours",-42.0%
same,Percent Change HR (heart rate),"oral 10 mg/kg, 3 hours",16.5%
same,Percent Change BP (blood pressure),"oral 10 mg/kg, 5 hours",-38.0%
same,Percent Change HR (heart rate),"oral 10 mg/kg, 5 hours",-10.3%
same,Percent Change BP (blood pressure),"oral 10 mg/kg, 24 hours",-12.0%
same,Percent Change HR (heart rate),"oral 10 mg/kg, 24 hours",1.5%
same,Percent Change BP (blood pressure),"oral 30 mg/kg, 1 hour",-30.0%
same,Percent Change HR (heart rate),"oral 30 mg/kg, 1 hour",-9.8%
same,Percent Change BP (blood pressure),"oral 30 mg/kg, 3 hours",-23.8%
same,Percent Change HR (heart rate),"oral 30 mg/kg, 3 hours",-8.8%
same,Percent Change BP (blood pressure),"oral 30 mg/kg, 5 hours",-26.0%
same,Percent Change HR (heart rate),"oral 30 mg/kg, 5 hours",-15.5%
same,Percent Change BP (blood pressure),"oral 30 mg/kg, 24 hours",-4.0%
same,Percent Change HR (heart rate),"oral 30 mg/kg, 24 hours",-8.0%
